Data from US5521156A, “Cyclic neurokinin A antagonists” (priority 1994, dated 1996).
Where a SMILES comes first, the peptide text is derived from it. [ ]: non-standard residue; d: D form.

Columns and labels:
[1] = target: T1, bovine stomach NK-2 receptor (Bos taurus, UniProt P05363); assay: Antagonism of NK-2 receptor mediated phosphatidylinositol turnover in SKLKB82#3 cells; assay type: cell-based; conditions: Schild regression vs NKA, 95% confidence limits 8.22 to 8.69, read-out: pA2 (converted)
T1 construct: expressed in transfected cells; host or cells: SKLKB82#3 (mouse fibroblast cell line)
T1 sequence (P05363 1-384): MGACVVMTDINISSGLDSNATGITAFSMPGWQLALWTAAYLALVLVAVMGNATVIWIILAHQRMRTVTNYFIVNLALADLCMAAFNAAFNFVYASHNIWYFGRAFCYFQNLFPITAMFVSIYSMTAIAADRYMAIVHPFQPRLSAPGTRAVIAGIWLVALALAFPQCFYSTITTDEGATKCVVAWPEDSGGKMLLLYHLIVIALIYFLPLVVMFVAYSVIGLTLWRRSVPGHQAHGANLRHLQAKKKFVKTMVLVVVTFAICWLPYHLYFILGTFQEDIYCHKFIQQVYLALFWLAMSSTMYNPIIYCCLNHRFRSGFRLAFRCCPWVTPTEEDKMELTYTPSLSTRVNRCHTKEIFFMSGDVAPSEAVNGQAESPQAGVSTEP
Method: Cultured SKLKB82#3 (bovine stomach NK-2 receptor transfected into mouse fibroblast cell line) cells were seeded onto 24-well plates at 125,000 cells/well, two-three days prior to assay. Cells were loaded with 0.5 ml of 0.2 μM myo[2-^3 H(N)] inositol (American Radiolabeled Chemicals Inc., specific activity, 20 Ci/mmol) 20-24 hrs prior to assay. Cultured cells were maintained at 37° C. in a 5% CO2 environment. On the day of the assay, media was aspirated and the cells incubated in D-MEM/F-12 media containing 40 μg/ml bacitracin, 4 μg/ml each of leupeptin and chymostatin, 0.1% bovine serum albumin and 1 μM thiorphan and 10 mM LiCl. After 15 min., cyclo[Tyr-trp-Leu-Arg-Trp-Gly] SEQ. ID 6 (concentration range 0.3 nM -10 μM) was added to the cells in a volume of 0.1 ml. […] The third elution was collected and counted in 9 ml scintillation fluid. A 50 μl aliquot of the organic (bottom) phase was removed, dried in a scintillation vial and counted in 7 ml scintillation fluid.
The ratio of DPM in the aqueous phase aliquot (total inositol phosphates) to the DPM in the 50 μl organic phase aliquot (total [^3 H]-inositol incorporated) was calculated for each sample. Data are expressed as a percent of agonist-induced accumulation of [3H]-inositol phosphates over basal leTels. […]

NK-1 receptor = target: T2, NK-1 receptor (Cavia porcellus, UniProt P30547); assay: NK-1 receptor binding (125I-Bolton-Hunter substance P) in guinea pig lung membranes; conditions: 0.1 nM 125I-Bolton-Hunter Lys-3 substance P, mean ± S.E.M.
T2 construct: tissue Keystone Biologicals, Cleveland, OH; host or cells: guinea pig lung
Method: Receptor binding assays were performed in crude tissue membranes. The NK-1 receptor binding affinity of proposed tachykinin antagonists was evaluated in guinea pig lungs (Keystone Biologicals, Cleveland, OH, kept frozen at -80° C. until use). Affinity for the NK-2 receptor was evaluated in HSKR-1 cells which are mouse 3T3 fibroblasts expressing the human jejunal NK-2 receptor. Tissues or cells were homogenized with a Polytron in 15 volumes of 50 mM Tris-HCl buffer (pH 7.4, 4° C.) containing 120 mM NaCl and 5 mM KCl and centrifuged at 48,000×g for 12 min. at 4° C. The pellet was resuspended in 15 volumes of 50 mM Tris-HCl buffer containing 10 mM EDTA and 300 mM KCl then set on ice for 30 min. The suspension was cetrifuged as above and the pellet washed by resuspension and cetrifugation two additional times in 50 mM Tris-HCl buffer (pH 7.4, 4° C.). The final pellet was resuspended in a concentration of 20 mg/ml in incubation buffer then kept at room temperature for at least 15 min prior to use. Receptor binding was initiated by addition of 250 μl membrane preparation (final protein concentration; lungs=286 μg/tube, HSKR-1 cells=100 μg/tube) in duplicate to 0.1 nM of the following radioligands: for NK-1 receptor assays, ^125 I-Bolton-Hunter Lys-3 labeled substance P (New England Nuclear, specific activity, 2200 Ci/mmol); for NK-2 receptor assays, ^125 iodohistidyl-1-neurokinin A (Amersham, specific activity, 2000 Ci/mmol) in a final volume of 500 μl of buffer containing 50 mM Tris-HCl (pH 7.4 at room temperature), 0.1% bovine serum albumin, 2 mM MnCl2, 40 μg/ml bacitracin, 4 μg/ml leupeptin and chymostatin, 1 μM thiorphan and various doses of the tachykinin antagonists. Incubations were performed at room temperature for 90 min (NK-1 receptor assays) or 2 hr (NK-2 receptor assays); binding was terminated by addition of 50 mM Tris-HCl buffer (pH 7.4, 4° C.) and filtration under vacuum through GF/B filters presoaked with 0.1% polyethyleneimine (NK-1 receptor assays) or 0.5% bovine serum albumin (NK-2 receptor assays). Nonspecific binding was defined as binding in the presence of 1 μM substance P (NK-1 receptor assays) or neurokinin A (NK-2 receptor assays) (Peptides International, Inc., Louisville, Ky.). Specific binding was calculated by subtracting nonspecific binding from total binding and corresponded to 70-90% of total binding. Data were analyzed and IC50 values generated by nonlinear regression using an iterative curve fitting program (GraphPAD Inplot, San Diego, Calif.). Protein was determined by the method of Lowry.

T2 sequence (P30547 whole entry): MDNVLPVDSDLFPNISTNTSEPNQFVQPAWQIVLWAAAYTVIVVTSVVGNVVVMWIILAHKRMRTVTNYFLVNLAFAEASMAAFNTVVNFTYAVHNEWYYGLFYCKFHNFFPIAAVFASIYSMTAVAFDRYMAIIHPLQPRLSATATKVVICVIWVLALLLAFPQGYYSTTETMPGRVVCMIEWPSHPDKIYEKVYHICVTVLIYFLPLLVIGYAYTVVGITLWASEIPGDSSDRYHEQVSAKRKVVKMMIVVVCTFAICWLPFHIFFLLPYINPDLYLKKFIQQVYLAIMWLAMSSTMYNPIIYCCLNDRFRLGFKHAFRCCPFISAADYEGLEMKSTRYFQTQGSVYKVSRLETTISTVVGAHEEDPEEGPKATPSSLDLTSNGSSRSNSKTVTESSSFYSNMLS

Compound: CC(C)C[C@@H]1NC(=O)[C@@H](Cc2c[nH]c3ccccc23)NC(=O)[C@H](Cc2ccc(O)cc2)NC(=O)CNC(=O)[C@H](Cc2c[nH]c3ccccc23)NC(=O)[C@H](CCCNC(=N)N)NC1=O [cyclo[Tyr--trp--Leu--Arg--Trp--Gly], cyclo[Tyr-trp-Leu-Arg-Trp-Gly]] (cyclo(GY[dW]LRW))
- Kb [1]: 3.55 nM
- IC50 (NK-1 receptor): 6190 ± 277 nM
